The values that follow come from US20240287138A1, “CYCLIC PEPTIDES FOR INHIBITING TNF RECEPTOR 1 ACTIVITY” (Merck Sharp & Dohme LLC, priority 2023, published 2024).

In test [1] the target is T1, human soluble TNFR1 (sTNFR1) (Homo sapiens, UniProt P19438).
T1 construct: made in house; host or cells: Sf21 (baculovirus)
T1 sequence (P19438 with tags, fused parts or gaps): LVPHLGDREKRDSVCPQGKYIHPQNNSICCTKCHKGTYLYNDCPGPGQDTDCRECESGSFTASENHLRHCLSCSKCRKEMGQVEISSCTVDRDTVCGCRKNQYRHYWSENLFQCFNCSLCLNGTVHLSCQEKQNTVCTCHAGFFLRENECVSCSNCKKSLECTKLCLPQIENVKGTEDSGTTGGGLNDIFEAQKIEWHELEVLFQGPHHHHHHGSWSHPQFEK
In words: Human sTNFR1-peptide displacement assay (LanthaScreen Eu TR-FRET binding assay). An outline of the steps: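 Readout is the 665/615 nm TR-FRET ratio (Eu anti-His donor, streptavidin-Alexa647 acceptor), normalized to DMSO and saturating displacer, fit by Morrison-based five-parameter logistic for Kd^app. His-tagged sTNFR1 (1-211) prebound to 100 nM biotinylated peptide SEQ ID NO.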

In test [2] the target is T2, human TNFR1 extracellular domain (ECD) protein (Homo sapiens, UniProt P19438).
T2 construct: HRV 3C protease cleavage site (C); 6His (C, cleaved yes); made in house; host or cells: Sf21 insect cells (baculovirus), secreted
T2 sequence (P19438 30-211): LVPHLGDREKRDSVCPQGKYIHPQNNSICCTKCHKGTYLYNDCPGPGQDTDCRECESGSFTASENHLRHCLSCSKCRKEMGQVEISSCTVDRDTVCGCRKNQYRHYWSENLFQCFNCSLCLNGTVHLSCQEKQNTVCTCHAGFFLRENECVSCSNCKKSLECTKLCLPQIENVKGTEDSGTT
The experiment in a line: SPR binding affinity to captured human TNFR1 ECD. The gist of the method:
(§1)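 Peptide binding kinetics read by SPR in HEPES pH 7.4 running buffer with 2% DMSO, with TNFR2 ECD tested in parallel for off-target binding. Receptor ECDs, insect-cell expressed and biotinylated at C-terminal avi-tag, were captured via streptavidin. KA derived from association and dissociation rate constants.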

The next test deals with T3, human TNFR2 ECD protein (Homo sapiens, UniProt P20333).
T3 construct: HRV 3C protease cleavage site (C); 6His (C, cleaved yes); made in house; host or cells: Sf21 insect cells (baculovirus), secreted
T3 sequence (P20333 23-257): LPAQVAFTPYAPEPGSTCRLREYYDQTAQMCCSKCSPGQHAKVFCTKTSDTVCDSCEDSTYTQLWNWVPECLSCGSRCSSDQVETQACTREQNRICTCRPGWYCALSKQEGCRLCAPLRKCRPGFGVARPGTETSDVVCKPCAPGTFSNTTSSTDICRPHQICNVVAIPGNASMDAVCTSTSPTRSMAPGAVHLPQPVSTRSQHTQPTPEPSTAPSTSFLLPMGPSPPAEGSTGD
In words: SPR off-target binding (selectivity) to human TNFR2 ECD. The gist of the method:
as §1

pIC50, pKd: −log10 of the molar value. Numbered stars: 1 amine (or outer) side, 2 acyl side, 3 side chain; on linkers, the order of the positions; unused ones are H or OH. Bridge positions count the residues as written; N and C are the ends. Square brackets hold non-standard residues; d marks the D form. Peptide text beside a SMILES is read from it. Trp(βS-Me,7-OMe) = COc1cccc2c([C@H](C)[C@H](N)C(=O)O)c[nH]c12; Ala(1-bicyclo(1.1.1)pentyl) = N[C@@H](CC12CC(C1)C2)C(=O)O; Phe(3-CH2NH2) = O=C([C@H](Cc1cccc(CN[*:3])c1)N[*:1])[*:2]; Trp(4-Cl) = N[C@@H](Cc1c[nH]c2cccc(Cl)c12)C(=O)O; Trp(7-Cl) = N[C@@H](Cc1c[nH]c2c(Cl)cccc12)C(=O)O; Phe(3-CONH2) = NC(=O)c1cccc(C[C@H](N)C(=O)O)c1; Phe(4-CONH2) = NC(=O)c1ccc(C[C@H](N)C(=O)O)cc1; Phe(4-COOH) = N[C@@H](Cc1ccc(C(=O)O)cc1)C(=O)O; Trp(7-aza) = N[C@@H](Cc1c[nH]c2ncccc12)C(=O)O; Phe(4-CH2NH2) = NCc1ccc(C[C@H](N)C(=O)O)cc1; dPro(4S-NH2) = N[C@@H]1CN[C@@H](C(=O)O)C1; Pip(5R-OH) = O=C(O)[C@@H]1CC[C@@H](O)CN1; αMeW = C[C@](N)(Cc1c[nH]c2ccccc12)C(=O)O; X1 = O=C([C@@H]1CC[C@H](N[*:1])C1)[*:2]; Pip(4-aza) = O=C(O)[C@@H]1CNCCN1; 4Pal = N[C@@H](Cc1ccncc1)C(=O)O; NMeE = CN[C@@H](CCC(=O)O)C(=O)O; NMeN = CN[C@@H](CC(N)=O)C(=O)O; αMeS = C[C@](N)(CO)C(=O)O; Nle = CCCC[C@H](N)C(=O)O; Sar = CNCC(=O)O A value given as a limit tells only on which side of the number the result lay.

For `CCCC[C@@H]1NC(=O)[C@@H]2CC[C@@H](C2)NC(=O)[C@H]([C@@H](C)c2c[nH]c3c(OC)cccc23)NC(=O)CN(C)C(=O)[C@H](Cc2ccc(C(N)=O)cc2)NC(=O)[C@H](Cc2ccc(C(N)=O)cc2)NC(=O)[C@](C)(CO)NC(=O)[C@H](Cc2c[nH]c3c(Cl)cccc23)NC(=O)[C@H](Cc2ccncc2)NC(=O)[C@H](CC(N)=O)NC(=O)[C@H](CCC(=O)O)N(C)C(=O)[C@H](Cc2c[nH]c3ncccc23)NC(=O)[C@@H]2CC[C@@H](O)CN2C(=O)[C@H](Cc2ccncc2)NC1=O` [SEQ ID NO. 189] (cyclo([4Pal][Trp(7-Cl)][αMeS][Phe(4-CONH2)][Phe(4-CONH2)][Sar][Trp(βS-Me,7-OMe)][X1][Nle][4Pal][Pip(5R-OH)][Trp(7-aza)][NMeE]N)), the pKd in test [1] is 11.00; in test [2], 10.00; on human TNFR2 ECD protein, less than 6.00.

For the compound `CN1CC(=O)N[C@@H](Cc2c[nH]c3cccc(Cl)c23)C(=O)N[C@H](C(N)=O)CSCC(=O)N[C@@H](CC23CC(C2)C3)C(=O)N[C@@H](Cc2cccc(CN)c2)C(=O)N[C@@H](CO)C(=O)N[C@@H](Cc2c[nH]c3c(Cl)cccc23)C(=O)N2CCC[C@@H]2C(=O)N(C)[C@@H](CC(N)=O)C(=O)N[C@@H](Cc2ccc(C(=O)O)cc2)C(=O)N[C@@H](Cc2c[nH]c3c(Cl)cccc23)C(=O)N[C@@](C)(CO)C(=O)N[C@@H](Cc2ccc(C(=O)O)cc2)C(=O)N[C@@H](Cc2cccc(CN)c2)C1=O` [SEQ ID NO. 222] ({CH2CO}-[Ala(1-bicyclo(1.1.1)pentyl)][Phe(3-CH2NH2)]S[Trp(7-Cl)][dP][NMeN][Phe(4-COOH)][Trp(7-Cl)][αMeS][Phe(4-COOH)][Phe(3-CH2NH2)][Sar][Trp(4-Cl)]C-NH2; thioether N-14), the pIC50 in test [1] is 8.76. For the same compound, the pKd in test [2] was 9.74; at human TNFR2 ECD protein it was less than 6.00.

Take `CCCC[C@@H]1NC(=O)CSC[C@@H](C(N)=O)NC(=O)[C@](C)(Cc2c[nH]c3ccccc23)NC(=O)CN(C)C(=O)[C@H](Cc2ccc(O)cc2)NC(=O)[C@H](Cc2cccc(C(N)=O)c2)NC(=O)[C@](C)(CO)NC(=O)[C@H](Cc2c[nH]c3c(Cl)cccc23)NC(=O)[C@H](Cc2ccncc2)NC(=O)[C@H](CC(N)=O)NC(=O)[C@H](CCC(=O)O)N(C)C(=O)[C@H](Cc2c[nH]c3ncccc23)NC(=O)[C@H](CO)NC(=O)[C@H](Cc2ccc(CN)cc2)NC1=O` [SEQ ID NO. 205] ({CH2CO}-[Nle][Phe(4-CH2NH2)]S[Trp(7-aza)][NMeE]N[4Pal][Trp(7-Cl)][αMeS][Phe(3-CONH2)]Y[Sar][αMeW]C-NH2; thioether N-14): the pKd in test [1] was 9.00; in test [2], 9.22; on human TNFR2 ECD protein, less than 6.00.

As to `CCCC[C@@H]1NC(=O)[C@@H]2CC[C@@H](C2)NC(=O)[C@H]([C@@H](C)c2c[nH]c3c(OC)cccc23)NC(=O)CN(C)C(=O)[C@H](Cc2ccc(O)cc2)NC(=O)[C@H](Cc2ccc(C(N)=O)cc2)NC(=O)[C@](C)(CO)NC(=O)[C@H](Cc2c[nH]c3c(Cl)cccc23)NC(=O)[C@H](Cc2ccncc2)NC(=O)[C@H](CC(N)=O)NC(=O)[C@H]2C[C@H](N)CN2C(=O)[C@H](Cc2c[nH]c3ccccc23)NC(=O)[C@@H]2CC[C@@H](O)CN2C(=O)[C@H](Cc2ccncc2)NC1=O` [SEQ ID NO. 144] (cyclo([4Pal][Trp(7-Cl)][αMeS][Phe(4-CONH2)]Y[Sar][Trp(βS-Me,7-OMe)][X1][Nle][4Pal][Pip(5R-OH)]W[dPro(4S-NH2)]N)), the pKd in test [1] was 10.15; in test [2], 10.00; at human TNFR2 ECD protein, less than 6.00.

Take `CCCC[C@@H]1NC(=O)[C@@H]2CC[C@@H](C2)NC(=O)[C@H]([C@@H](C)c2c[nH]c3c(OC)cccc23)NC(=O)CN(C)C(=O)[C@H](Cc2ccc(O)cc2)NC(=O)[C@H](Cc2ccc(C(=O)O)cc2)NC(=O)[C@](C)(CO)NC(=O)[C@H](Cc2c[nH]c3c(Cl)cccc23)NC(=O)[C@H](Cc2ccncc2)NC(=O)[C@H](CC(N)=O)NC(=O)[C@H]2C[C@H](N)CN2C(=O)[C@H](Cc2c[nH]c3ccccc23)NC(=O)[C@@H]2CNCCN2C(=O)[C@H](Cc2ccncc2)NC1=O` [SEQ ID NO. 161] (cyclo([4Pal][Trp(7-Cl)][αMeS][Phe(4-COOH)]Y[Sar][Trp(βS-Me,7-OMe)][X1][Nle][4Pal][Pip(4-aza)]W[dPro(4S-NH2)]N)): the pKd is 10.05 in test [1], 10.70 in test [2] and less than 6.00 at human TNFR2 ECD protein.
